Earlier results, collected in patent publication EP2007386B1, “CAMPTOTHECIN-ANALOG WITH A NOVEL, FLIPPED LACTONE-STABLE, E-RING AND METHODS FOR MAKING AND USING SAME” (BIONUMERIK PHARMACEUTICALS, INC., priority 2006, dated 2007).
Entries after “also recorded” stand apart in the source; their conditions may differ. Like-named read-outs stand apart in the source and are kept apart here.

Columns and labels:
[1] = for Non-Hematologic Toxicity No. of Patients With: Cystitis / Non-Hematologic Toxicity No. of Patients With: Diarrhea: 5-day Course; for Number of Patients with Non-Hematologic Toxicity: Cystitis / Number of Patients with Non-Hematologic Toxicity: Diarrhea: Single-Dose Method
[2] = tested on: gastrointestinal cancer
[3] = tested on: advanced malignant melanoma; conditions: fifteen patients, 90-360 mg/m^2 repeated every 2 weeks
[4] = not given; remark: listed apart in the source
[5] = et al
[6] = tested on: angiogenesis; conditions: mice cornea model; dose levels of 210 mg/kg
[7] = clinical studies in Japan alone
[8] = 15 mg/m^2x5, 9 patients treated
[9] = 17 mg/m^2x5, 5 patients treated
[10] = 20 mg/m^2x5, 10 patients treated
[11] = 5-Day Course (27 Patients Total), 4 wks
[12] = 5-Day Course (27 Patients Total), 8 wks
[13] = 5-Day Course (27 Patients Total), 12 wks
[14] = Single-Dose Method (34 Patients Total), 3 wks
[15] = Single-Dose Method (34 Patients Total), 6 wks
[16] = Single-Dose Method (34 Patients Total), 9 wks
[17] = Single-Dose Method (34 Patients Total), 12 wks
[18] = Rothenberg, 90mg QWx 4 Q42 days, 32 pts, 180mg/m^2/wk (50-180)

CC[C@@]1(O)C(=O)OCc2c1cc1n(c2=O)Cc2cc3ccccc3nc2-1 [CPT, (S)-4-Ethyl-4-hydroxy-1 H-pyrano[3',4':6,7]indolizino[1,2-b]quinoline-3,14(4H,12H)-dione]
mean urine recovery of CPT (excluding the five patients with impaired excretion): 22.8%
mean urine recovery of CPT (over the first 48 hours, IV camptothecin sodium 0.5 to 10.0 mg/kg): 17.4%

CC[C@@]1(O)C(=O)OCc2c1cc1n(c2=O)Cc2cc3ccccc3nc2-1 [CPT sodium]
Cystitis, 5-Day Course (% of 27 Patients) ([1]; 5-Day Course, 27 patients, P<0.05): 48 (P<0.05) %
Non-Hematologic Toxicity No. of Patients With: Cystitis ([1]; 11 mg/m^2x5, 2 patients treated): 1
Non-Hematologic Toxicity No. of Patients With: Cystitis [1, 8]: 4
Non-Hematologic Toxicity No. of Patients With: Diarrhea [1, 8]: 1
Non-Hematologic Toxicity No. of Patients With: Cystitis [1, 9]: 2
Non-Hematologic Toxicity No. of Patients With: Diarrhea [1, 9]: 4
Non-Hematologic Toxicity No. of Patients With: Cystitis [1, 10]: 6
Non-Hematologic Toxicity No. of Patients With: Diarrhea [1, 10]: 4
Non-Hematologic Toxicity No. of Patients With: Diarrhea ([1]; 22 mg/m^2x5, 1 patient treated): 1
Cystitis, Single Dose (% of 34 Patients) ([1]; Single Dose, 34 patients): 24%
Number of Patients with Non-Hematologic Toxicity: Cystitis ([1]; 100 mg/m^2, 6 patients treated): 2
Number of Patients with Non-Hematologic Toxicity: Cystitis ([1]; 110 mg/m^2, 2 patients treated): 1
Number of Patients with Non-Hematologic Toxicity: Diarrhea ([1]; 110 mg/m^2, 2 patients treated): 1
Number of Patients with Non-Hematologic Toxicity: Cystitis ([1]; 120 mg/m^2, 7 patients treated): 2
Number of Patients with Non-Hematologic Toxicity: Diarrhea ([1]; 120 mg/m^2, 7 patients treated): 4
Number of Patients with Non-Hematologic Toxicity: Cystitis ([1]; 180 mg/m^2, 9 patients treated): 3
Number of Patients with Non-Hematologic Toxicity: Diarrhea ([1]; 180 mg/m^2, 9 patients treated): 2
Objective Results: Stable (patients) [2, 11]: 12
Objective Results: Worse (patients) [2, 11]: 14
Objective Results: Improved (patients) ([2]; 5-Day Course (27 Patients Total), 4 wks after start of therapy): 1
Objective Results: Stable (patients) [2, 12]: 7
Objective Results: Worse (patients) [2, 12]: 20
Objective Results: Stable (patients) [2, 13]: 6
Objective Results: Worse (patients) [2, 13]: 21
Objective Results: Stable (patients) [2, 14]: 17
Objective Results: Worse (patients) [2, 14]: 13
Objective Results: Improved (patients) ([2]; Single-Dose Method (34 Patients Total), 3 wks after start of therapy): 4
Objective Results: Improved (patients) [2, 15]: 2
Objective Results: Stable (patients) [2, 15]: 11
Objective Results: Worse (patients) [2, 15]: 21
Objective Results: Improved (patients) [2, 16]: 2
Objective Results: Stable (patients) [2, 16]: 8
Objective Results: Worse (patients) [2, 16]: 24
Objective Results: Stable (patients) [2, 17]: 6
Objective Results: Worse (patients) [2, 17]: 28
patients with evidence of partial objective improvement ([2]; after 2 months (8 or 9 weeks), of 61 patients): two
patients who showed improvement ([2]; at 3 months, of 61 patients): none
patients with less pronounced transient tumor regression [3]: three
patients with myelosuppression [3]: 11
patients with a 50% or greater decrease in tumor diameter ([3]; rapid IV injection): None
patients with dose limiting bladder toxicity ([4]; doses of 20 to 30 mg/m^2, fifteen patients, intravenous push): three
additional patients with bladder toxicity ([4]; doses of 30 and 44 mg/m^2): two
clinical benefit ([4]; eight patients with measurable disease, 5-day courses at dose levels associated with toxicity): No clinical benefit

CCc1c2c(nc3ccc(OC(=O)N4CCC(N5CCCCC5)CC4)cc13)-c1cc3c(c(=O)n1C2)COC(=O)[C@]3(O)CC [CPT-11, 7-ethyl-10-[4-(1-piperidino)-1-piperidino]carbonyloxycamptothecin]
Tumor Type (responses) ([5]; Clavel, 90 min. QDx 3 Q21 Days, 37 pts, 115mg/m^2/d (33-115)): Breast (1 PR); also recorded: Mesothelioma
Toxicity ([5]; Clavel, 90 min. QDx 3 Q21 Days, 37 pts, 115mg/m^2/d (33-115), * = Dose Limiting Toxicity): Neutropenia*; also recorded: diarrhea,; also recorded: vomiting,
Tumor Type (responses) ([5]; Culine, 90 min. Q21 days, 59 pts, 150mg/m^2/wk (50-150)): Esophagus; also recorded: (1 PR) cervix; also recorded: (1 PR) renal; also recorded: (1 PR) Ovarian
Toxicity ([5]; Culine, 90 min. Q21 days, 59 pts, 150mg/m^2/wk (50-150), * = Dose Limiting Toxicity): Fatigue; also recorded: Stomatitis; also recorded: Neutropenia*; also recorded: diarrhea*; also recorded: vomiting,; also recorded: Alopecia
Tumor Type (responses) ([5]; Negoro, 30 min Infusion Weekly, 17 pts, 100mg/m^2 (50-150)): NS CLC (2 PRs)
Toxicity ([5]; Negoro, 30 min Infusion Weekly, 17 pts, 100mg/m^2 (50-150), * = Dose Limiting Toxicity): neutropenia* and diarrhea* and N/V and alopecia, and Liver
Tumor Type (responses) ([5]; Ohe, 120 hr CI Q3wks, 36 pts, 40mg/m^2/d (5-40)): None
Toxicity ([5]; Ohe, 120 hr CI Q3wks, 36 pts, 40mg/m^2/d (5-40), * = Dose Limiting Toxicity): diarrhea*; also recorded: thrombocytopenia; also recorded: Anemia
Toxicity [5, 18]: neutropenia,; also recorded: vomiting,; also recorded: Alopecia
Tumor Type (responses) [5, 18]: Colon Ca
Tumor Type (responses) ([5]; Rowinsky, 90 min Infusion Q21 day, 32 pts, 240mg/m^2 (100-345)): Colon Cancer (1 PR); also recorded: Cervix Ca
Toxicity ([5]; Rowinsky, 90 min Infusion Q21 day, 32 pts, 240mg/m^2 (100-345), * = Dose Limiting Toxicity): Neutropenia*; also recorded: vomiting,; also recorded: diarrhea; also recorded: pain, flushing
effect on neovascularization [6]: significant reduction of neovascularization
patient deaths directly attributable to drug toxicity [7]: approximately 100
